Reference: US20240101576A1, “HETEROCYCLIC INHIBITORS OF EGFR AND/OR HER2, FOR USE IN THE TREATMENT OF CANCER” (Scorpion Therapeutics, Inc., priority 2020, published 2024)

What was measured:
Type in all cases: cell-based
[1] = target: T1, EGFR exon 20 SVD Ins D770_N771 (Ba/F3 cells) (Homo sapiens, UniProt P00533, INS770SVD); test: Inhibitor activity on EGFR-dependent cell growth (CellTiter-Glo, 72 h), Ba/F3 EGFR exon 20 SVD Ins; conditions: read-out: BaF3 SVD IC50
T1 construct: expressed in transfected cells; host or cells: Ba/F3 (murine pro-B cells), retroviral transduction, puromycin selection, IL3-independent pool
In short: (§1)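 IC50s derive from a sigmoidal dose–response fit of CellTiter-Glo signal. The signal was normalised between […]-treated cells and cell-free medium. Ba/F3 mutant-EGFR cells, seeded at 400–800/well depending on the line, had 72 h of exposure to a 10-point, 3-fold compound series.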

[2] = target: T2, EGFR exon 19del (Ba/F3 cells) (Homo sapiens, UniProt P00533); test: Inhibitor activity on EGFR-dependent cell growth (CellTiter-Glo, 72 h), Ba/F3 EGFR exon 19del; conditions: Ba/F3 EGFR exon 19del cell growth, read-out: BaF3 Del19 IC50
In short: (§2)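 Ba/F3, retrovirally transduced, puromycin-selected, grown without IL3; cells/well: L858R 400, L858R/C797S 600, exon 19del 800, FQEA 800. Cpds from 10 mM DMSO stock, 3-fold ×10 dilution, 120 nL per well; 72 h. CTG readout; IC50 via Hill equation.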

[3] = target: T3, EGFR exon 20 NPG Ins D770_N771 (Ba/F3 cells) (Homo sapiens, UniProt P00533, INS770NPG); test: Inhibitor activity on EGFR-dependent cell growth (CellTiter-Glo, 72 h), Ba/F3 EGFR exon 20 NPG Ins; conditions: read-out: BaF3 NPG IC50
T3 construct: expressed in transfected cells; host or cells: Ba/F3 (murine pro-B cells), retroviral transduction, puromycin selection, IL3-independent pool
In short: as §1

[4] = target: T4, EGFR L858R/C797S (Ba/F3 cells) (Homo sapiens, UniProt P00533, C797S/L858R); test: Inhibitor activity on EGFR-dependent cell growth (CellTiter-Glo, 72 h), Ba/F3 EGFR L858R/C797S; conditions: read-out: BaF3 L858R/C797S IC50
T4 construct: expressed in transfected cells; host or cells: Ba/F3 (murine pro-B cells), retroviral transduction, puromycin selection, IL3-independent pool
Excerpt: Example A. Inhibitor Activity on EGFR-Dependent Cell Growth
Cell lines are generated by transducing Ba/F3 cells with retroviruses containing vectors with EGFR WT, EGFR L858R, EGFR exon 19del, EGFR L858R/C797S, EGFR exon 20 NPG Ins D770_N771, EGFR exon 20 ASV Ins V769_D770, EGFR exon 20 SVD Ins D770_N771, or EGFR exon 20 FQEA Ins A763_V764 genes and a puromycin selection marker. Transduced cells are selected with puromycin for 7 days and are then be transferred into culture media without Interleukin 3 (IL3). EGFR WT cells are maintained with supplemental EGF. Surviving cells are confirmed to express EGFR by Western blot and maintained as a pool. The IC50 date were included in Table 6 and Table 7.
(§3) 1.1 Cells are harvested from flask into cell culture medium and the cell number counted.
1.2 Cells are diluted with culture medium to the desired density and 40 μL of cell suspension is added into each well of 384-well cell culture plate and the seeding density is 800 (FQEA, exon 19del), 600 (WT, NPG, L858R/C797S), or 400 (ASV, SVD, L858R) cells/well.
(§4) 2 Compound Preparation and Treatment
(§5) 2.1 Test compounds are dissolved to 10 mM in a DMSO stock solution. 45 μL of stock solution is transferred to a 384 polypropylene plate (pp-plate). Perform 3-fold, 10-point dilution via transferring 15 μL compound into 30 μL DMSO using a TECAN (EVO200) liquid handler.
(§6) 2.2 Spin plates at room temperature at 1,000 RPM for 1 minute.
2.3 Transfer 120 nL of diluted compound from compound source plate into the cell plate.
2.4 After compound treatment for 72 hours, perform CTG detection for compound treatment plates as described in “Detection” section.
3.1 Plates are removed from incubators and equilibrated at room temperature for 15 minutes.
3.2 Thaw the CellTiter Glo reagents and allow to equilibrate to room temperature before the experiment.
3.3 Add 40 μL of CellTiter-Glo reagent into each well (at 1:1 to culture medium). Then place the plates at room temperature for 30 min followed by reading on EnVision.
4.1 Inhibition activity is calculated following the formula below:
% Inhibition=100×(LumHC−LumSample)/(LumHC−LumLC) • where HC is obtained from cells treated with 0.1% DMSO only; and LC is obtained from culture medium only.
4.2 2. Calculate the IC50 by fitting the Curve using Xlfit (v5.3.1.3), equation 201.
Y=Bottom+(Top−Bottom)/(1+10^((Log IC50−X)*HillSlope))

EGFR L858R (Ba/F3 cells) [5] = target: T5, EGFR L858R (Ba/F3 cells) (Homo sapiens, UniProt P00533, L858R); test: Inhibitor activity on EGFR-dependent cell growth (CellTiter-Glo, 72 h), Ba/F3 EGFR L858R; conditions: read-out: BaF3 L858R IC50
T5 construct: expressed in transfected cells; host or cells: Ba/F3 (murine pro-B cells), retroviral transduction, puromycin selection, IL3-independent pool
In short: as §2

EGFR L858R (Ba/F3 cells) [6] = target: T5, EGFR L858R (Ba/F3 cells); test: Inhibitor activity on EGFR phosphorylation (pEGFR AlphaLISA, 2 h), Ba/F3 EGFR L858R
Excerpt: (§7) Example B. Inhibitor Activity on EGFR phosphorylation (pEGFR)
(§8) EGFR mutant Ba/F3 cells were generated by transduction with retrovirus containing vectors expressing EGFR L858R, EGFR exon 19del, EGFR L858R/C797S, EGFR exon 20 NPG Ins D770_N771, EGFR exon 20 ASV Ins V769_D770, or EGFR exon 20 SVD Ins D770_N771 genes along with a puromycin selection marker. Transduced cells are selected with puromycin for 7 days and are then be transferred into culture media without Interleukin 3 (IL3). Surviving cells are confirmed to express EGFR by Western blot and maintained as a pool. CUTO14 cells were obtained from Dr. Robert C. Doebele at the University of Colorado. The IC50 date are included in Table 6 and Table 7.
as §3
(§9) 1.2 Cells are diluted with culture medium to the desired density and 40 μL of cell suspension is added into each well of 384-well cell culture plate and the seeding density is 50K cells/well (Ba/F3) or 12.5K cells/well (CUTO14).
as §4, §5, §6
(§10) 2.3 Transfer 5 nL of diluted compound from compound source plate into the cell plate.
(§11) 2.4 After compound treatment for 2 hours, perform pEGFR detection by AlphaLISA for compound treatment plates as described in “Detection” section.
(§12) 3 Detection by pEGFR AlphaLISA (Perkin-Elmer)
(§13) 3.1 Plates are removed from incubators and equilibrated at room temperature for 10 minutes, and media was removed
(§14) 3.2 10 μL of lysis buffer is added and plates shaken at 600 rpm for 1 hr.
(§15) 3.3 Prepare acceptor mix just before use and dispense 5 μL of acceptor mix to all the wells. Shake 350 rpm for Ihr in the dark
(§16) 3.4 Prepare donor mix under low light conditions prior to use. Dispense 5 μL of donor mix to all the wells. Mix well on the shaker, seal and wrap in aluminum foil and incubate 1.5 hrs at room temperature in the dark
(§17) 3.5 Transfer 18.5 μL mixture to OptiPlate 384, and read using an Envision. The IC50 date were included in Table 6 and Table 7.

EGFR WT (Ba/F3 cells) = target: T6, EGFR WT (Ba/F3 cells) (Homo sapiens, UniProt P00533); test: Inhibitor activity on EGFR-dependent cell growth (CellTiter-Glo, 72 h), Ba/F3 EGFR WT; conditions: read-out: BaF3 WT IC50
T6 construct: expressed in transfected cells; host or cells: Ba/F3 (murine pro-B cells), retroviral transduction, puromycin selection, maintained with EGF
In short: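 This growth assay used Ba/F3 cells that depend on wild-type EGFR and are kept in EGF without IL3. Compounds were made up as 10 mM DMSO stocks and diluted 3-fold over 10 points. 120 nL went onto 600 cells/well. After 72 hours, 40 μL CellTiter-Glo was added and luminescence read on EnVision after 30 min.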

[7] = target: T7, EGFR exon 20 FQEA Ins A763_V764 (Ba/F3 cells) (Homo sapiens, UniProt P00533, INS763FQEA); test: Inhibitor activity on EGFR-dependent cell growth (CellTiter-Glo, 72 h), Ba/F3 EGFR exon 20 FQEA Ins; conditions: read-out: BaF3 FQEA IC50
T7 construct: expressed in transfected cells; host or cells: Ba/F3 (murine pro-B cells), retroviral transduction, puromycin selection, IL3-independent pool
In short: as §2

[8] = target: T2, EGFR exon 19del (Ba/F3 cells); test: Inhibitor activity on EGFR phosphorylation (pEGFR AlphaLISA, 2 h), Ba/F3 EGFR exon 19del; conditions: read-out: Del19 IC50 (pEGFR)
Excerpt: as §7, §8, §3, §9, §4, §5, §6, §10, §11, §12, §13, §14, §15, §16, §17

[9] = target: T8, EGFR exon 20 ASV Ins V769_D770 (Ba/F3 cells) (Homo sapiens, UniProt P00533, INS769ASV); test: Inhibitor activity on EGFR-dependent cell growth (CellTiter-Glo, 72 h), Ba/F3 EGFR exon 20 ASV Ins; conditions: read-out: BaF3 ASV IC50
T8 construct: expressed in transfected cells; host or cells: Ba/F3 (murine pro-B cells), retroviral transduction, puromycin selection, IL3-independent pool
In short: as §1

[10] = target: T4, EGFR L858R/C797S (Ba/F3 cells); test: Inhibitor activity on EGFR phosphorylation (pEGFR AlphaLISA, 2 h), Ba/F3 EGFR L858R/C797S
Excerpt: as §7, §8, §3, §9, §4, §5, §6, §10, §11, §12, §13, §14, §15, §16, §17

T6 sequence (P00533 25-1210): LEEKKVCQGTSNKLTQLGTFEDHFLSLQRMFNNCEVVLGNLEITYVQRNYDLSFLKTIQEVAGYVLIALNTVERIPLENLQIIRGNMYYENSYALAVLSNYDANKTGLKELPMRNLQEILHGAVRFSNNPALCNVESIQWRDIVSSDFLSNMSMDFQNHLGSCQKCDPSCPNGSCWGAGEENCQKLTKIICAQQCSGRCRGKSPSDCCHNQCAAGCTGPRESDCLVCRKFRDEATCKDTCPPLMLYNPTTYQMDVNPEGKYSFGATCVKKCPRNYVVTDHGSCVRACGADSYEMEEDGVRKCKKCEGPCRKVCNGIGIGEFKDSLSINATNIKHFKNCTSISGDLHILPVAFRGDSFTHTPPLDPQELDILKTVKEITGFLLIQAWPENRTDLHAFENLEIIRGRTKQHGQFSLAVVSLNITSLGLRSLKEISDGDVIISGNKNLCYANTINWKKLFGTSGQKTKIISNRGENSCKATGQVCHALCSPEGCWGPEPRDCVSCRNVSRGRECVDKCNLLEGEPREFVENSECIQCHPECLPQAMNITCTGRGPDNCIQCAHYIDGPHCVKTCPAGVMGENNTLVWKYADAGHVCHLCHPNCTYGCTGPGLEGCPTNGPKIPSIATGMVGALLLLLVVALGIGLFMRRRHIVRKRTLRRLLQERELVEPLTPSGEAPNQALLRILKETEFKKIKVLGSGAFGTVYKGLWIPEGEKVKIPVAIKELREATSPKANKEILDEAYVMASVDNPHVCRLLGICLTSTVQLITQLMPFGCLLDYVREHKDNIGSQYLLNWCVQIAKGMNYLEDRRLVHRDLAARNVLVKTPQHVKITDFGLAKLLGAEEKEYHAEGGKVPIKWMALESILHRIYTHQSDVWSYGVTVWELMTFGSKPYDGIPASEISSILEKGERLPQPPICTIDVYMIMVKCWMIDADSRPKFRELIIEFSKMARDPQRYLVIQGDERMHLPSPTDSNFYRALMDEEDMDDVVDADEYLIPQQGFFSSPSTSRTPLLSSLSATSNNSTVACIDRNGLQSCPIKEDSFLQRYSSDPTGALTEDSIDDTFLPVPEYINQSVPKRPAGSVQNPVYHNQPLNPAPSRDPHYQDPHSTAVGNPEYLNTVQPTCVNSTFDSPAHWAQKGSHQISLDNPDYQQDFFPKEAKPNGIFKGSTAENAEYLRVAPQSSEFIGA
T7 sequence (P00533 with tags, fused parts or gaps INS763FQEA): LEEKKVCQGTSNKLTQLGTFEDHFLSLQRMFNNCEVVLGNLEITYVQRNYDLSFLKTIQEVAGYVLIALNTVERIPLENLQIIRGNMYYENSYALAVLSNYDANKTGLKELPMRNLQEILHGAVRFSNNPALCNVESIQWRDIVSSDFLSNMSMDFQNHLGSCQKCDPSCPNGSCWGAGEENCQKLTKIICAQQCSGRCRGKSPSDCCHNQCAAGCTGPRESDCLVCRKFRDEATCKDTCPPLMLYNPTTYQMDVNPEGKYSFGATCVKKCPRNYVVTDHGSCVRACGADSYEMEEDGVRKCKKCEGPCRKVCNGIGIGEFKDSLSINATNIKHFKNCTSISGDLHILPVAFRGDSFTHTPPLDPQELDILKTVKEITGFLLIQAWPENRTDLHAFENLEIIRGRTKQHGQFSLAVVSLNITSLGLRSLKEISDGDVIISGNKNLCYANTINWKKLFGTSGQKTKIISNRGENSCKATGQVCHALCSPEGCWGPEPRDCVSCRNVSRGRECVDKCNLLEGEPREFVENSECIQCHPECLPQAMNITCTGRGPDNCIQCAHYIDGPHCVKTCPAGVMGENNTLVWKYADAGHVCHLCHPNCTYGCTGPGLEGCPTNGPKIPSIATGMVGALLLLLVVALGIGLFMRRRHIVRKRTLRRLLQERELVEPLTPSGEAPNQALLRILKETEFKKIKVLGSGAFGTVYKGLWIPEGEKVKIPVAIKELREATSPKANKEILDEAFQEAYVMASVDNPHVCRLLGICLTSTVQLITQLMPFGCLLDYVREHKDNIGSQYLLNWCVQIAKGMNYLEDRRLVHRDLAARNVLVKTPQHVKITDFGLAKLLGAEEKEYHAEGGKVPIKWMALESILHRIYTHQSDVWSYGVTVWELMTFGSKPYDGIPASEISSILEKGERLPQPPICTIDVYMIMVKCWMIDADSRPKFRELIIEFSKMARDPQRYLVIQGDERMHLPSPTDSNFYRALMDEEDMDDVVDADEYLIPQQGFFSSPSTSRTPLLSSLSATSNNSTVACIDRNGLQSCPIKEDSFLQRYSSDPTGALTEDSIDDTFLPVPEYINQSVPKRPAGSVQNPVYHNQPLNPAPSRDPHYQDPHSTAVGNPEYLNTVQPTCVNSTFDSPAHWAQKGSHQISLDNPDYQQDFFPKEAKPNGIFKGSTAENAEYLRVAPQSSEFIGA
T2 sequence (P00533 with tags, fused parts or gaps DEL746-750): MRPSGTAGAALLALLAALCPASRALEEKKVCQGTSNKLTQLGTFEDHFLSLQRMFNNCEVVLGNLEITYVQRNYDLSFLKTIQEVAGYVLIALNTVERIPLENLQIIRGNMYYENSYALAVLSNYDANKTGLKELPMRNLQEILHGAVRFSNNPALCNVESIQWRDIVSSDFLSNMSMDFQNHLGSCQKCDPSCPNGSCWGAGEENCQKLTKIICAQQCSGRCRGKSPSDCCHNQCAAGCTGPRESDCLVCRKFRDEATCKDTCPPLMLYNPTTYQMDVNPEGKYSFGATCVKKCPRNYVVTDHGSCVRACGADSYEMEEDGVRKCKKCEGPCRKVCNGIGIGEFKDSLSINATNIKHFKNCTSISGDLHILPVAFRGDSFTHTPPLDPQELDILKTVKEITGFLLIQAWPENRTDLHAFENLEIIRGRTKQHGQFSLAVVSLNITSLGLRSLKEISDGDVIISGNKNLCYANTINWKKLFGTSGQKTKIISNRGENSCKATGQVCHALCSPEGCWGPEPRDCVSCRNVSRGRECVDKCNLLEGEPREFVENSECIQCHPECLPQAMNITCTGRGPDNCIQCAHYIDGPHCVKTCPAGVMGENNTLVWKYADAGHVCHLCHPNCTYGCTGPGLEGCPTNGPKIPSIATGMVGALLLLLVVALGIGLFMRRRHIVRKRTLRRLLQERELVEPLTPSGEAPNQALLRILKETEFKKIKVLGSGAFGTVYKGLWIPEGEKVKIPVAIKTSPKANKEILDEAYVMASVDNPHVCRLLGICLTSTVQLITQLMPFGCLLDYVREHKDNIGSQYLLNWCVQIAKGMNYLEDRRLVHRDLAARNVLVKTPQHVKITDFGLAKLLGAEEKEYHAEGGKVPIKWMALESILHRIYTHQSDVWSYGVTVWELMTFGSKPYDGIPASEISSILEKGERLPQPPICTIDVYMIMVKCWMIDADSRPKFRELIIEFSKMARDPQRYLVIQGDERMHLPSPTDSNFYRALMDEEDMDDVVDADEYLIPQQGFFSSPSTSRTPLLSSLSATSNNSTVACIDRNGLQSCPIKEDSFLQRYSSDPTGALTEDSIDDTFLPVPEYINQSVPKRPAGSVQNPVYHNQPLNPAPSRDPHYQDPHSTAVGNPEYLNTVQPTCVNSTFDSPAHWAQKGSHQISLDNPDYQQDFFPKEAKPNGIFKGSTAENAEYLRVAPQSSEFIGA
T8 sequence (P00533 with tags, fused parts or gaps INS769ASV): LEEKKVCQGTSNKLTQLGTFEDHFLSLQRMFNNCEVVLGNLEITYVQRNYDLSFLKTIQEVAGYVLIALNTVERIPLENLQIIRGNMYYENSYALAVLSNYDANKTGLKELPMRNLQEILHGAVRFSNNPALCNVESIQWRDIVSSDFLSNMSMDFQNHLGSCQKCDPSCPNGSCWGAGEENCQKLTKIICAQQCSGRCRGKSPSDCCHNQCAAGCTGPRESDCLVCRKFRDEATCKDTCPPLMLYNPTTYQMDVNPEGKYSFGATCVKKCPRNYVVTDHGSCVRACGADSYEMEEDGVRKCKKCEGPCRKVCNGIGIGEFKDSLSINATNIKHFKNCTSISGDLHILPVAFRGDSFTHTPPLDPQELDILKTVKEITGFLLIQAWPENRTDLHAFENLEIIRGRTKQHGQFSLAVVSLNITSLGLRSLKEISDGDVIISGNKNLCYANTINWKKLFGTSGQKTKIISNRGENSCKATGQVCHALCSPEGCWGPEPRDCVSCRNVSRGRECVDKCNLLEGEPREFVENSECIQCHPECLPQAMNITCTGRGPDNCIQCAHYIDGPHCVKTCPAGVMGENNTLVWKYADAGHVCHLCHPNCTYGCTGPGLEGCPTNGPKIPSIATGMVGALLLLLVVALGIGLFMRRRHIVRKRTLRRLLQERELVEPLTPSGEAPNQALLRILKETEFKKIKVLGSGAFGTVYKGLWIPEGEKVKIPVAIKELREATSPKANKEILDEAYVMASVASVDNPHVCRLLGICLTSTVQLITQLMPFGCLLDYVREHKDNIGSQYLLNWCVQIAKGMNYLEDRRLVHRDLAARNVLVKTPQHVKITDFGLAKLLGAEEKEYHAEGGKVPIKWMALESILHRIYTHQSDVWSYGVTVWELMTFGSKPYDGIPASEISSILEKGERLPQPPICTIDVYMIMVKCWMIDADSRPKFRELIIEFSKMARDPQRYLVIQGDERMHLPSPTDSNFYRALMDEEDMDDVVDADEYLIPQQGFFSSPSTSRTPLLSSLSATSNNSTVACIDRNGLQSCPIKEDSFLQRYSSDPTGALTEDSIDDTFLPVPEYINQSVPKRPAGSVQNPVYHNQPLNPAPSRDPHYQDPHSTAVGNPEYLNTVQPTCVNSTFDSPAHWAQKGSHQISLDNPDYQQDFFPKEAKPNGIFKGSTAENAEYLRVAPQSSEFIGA

SMILES	IC50 [1] [nM]	IC50 [2] [nM]	IC50 [3] [nM]	IC50 [4] [nM]	IC50 (EGFR L858R (Ba/F3 cells) [5]) [nM]	IC50 (EGFR L858R (Ba/F3 cells) [6]) [nM]	IC50 (EGFR WT (Ba/F3 cells)) [nM]	IC50 [7] [nM]	IC50 [8] [nM]	IC50 [9] [nM]	IC50 [10] [nM]
COc1c(Cl)cccc1Nc1c(-c2ccncc2F)[nH]c2c1C(=O)NCC21CN(CC(F)F)C1 [Compound 519, 3′-[(3-chloro-2-methoxyphenyl)amino]-1-(2,2-difluoroethyl)-2′-(3-fluoropyridin-4-yl)-5′,6′-dihydro-1′H-spiro[azetidine-3,7′-pyrrolo[3,2-c]pyridin]-4′-one]	100 to 1000	< 100	100 to 1000	< 100	< 100	< 100	> 1000	–	< 100	100 to 1000	< 100
COc1c(F)cccc1Nc1c(-c2ccncn2)[nH]c2c1C(=O)NCC2C[C@H]1COCCO1 (single isomer, unassigned) [Compound 530, (7R*)-7-[(2S)-1,4-dioxan-2-ylmethyl]-3-[(3-fluoro-2-methoxyphenyl)amino]-2-(pyrimidin-4-yl)-1H,5H,6H,7H-pyrrolo[3,2-c]pyridin-4-one]	< 100	< 100	< 100	< 100	< 100	< 100	100 to 1000	–	< 100	< 100	< 100
COc1c(F)cccc1Nc1c(-c2ccncc2F)[nH]c2c1C(=O)NC[C@H]2CC1COCCO1 (stereo in doubt) [Compound 575, (7R)-7-[(2R)-1,4-dioxan-2-ylmethyl]-3-[(3-fluoro-2-methoxyphenyl)amino]-2-(3-fluoropyridin-4-yl)-1H,5H,6H,7H-pyrrolo[3,2-c]pyridin-4-one]	< 100	< 100	< 100	< 100	< 100	< 100	100 to 1000	–	< 100	< 100	< 100
COc1c(Cl)cccc1Nc1c(-c2ccncc2F)[nH]c2c1C(=O)NC[C@H]2CC1COCCO1 (stereo in doubt) [Compound 480, (7R)-3-[(3-chloro-2-methoxyphenyl)amino]-7-[(2R)-1,4-dioxan-2-ylmethyl]-2-(3-fluoropyridin-4-yl)-1H,5H,6H,7H-pyrrolo[3,2-c]pyridin-4-one]	–	< 100	< 100	< 100	< 100	< 100	100 to 1000	< 100	< 100	–	< 100
COc1c(F)cccc1Nc1c(-c2ccncn2)[nH]c2c1C(=O)NCC2C[C@H]1COCCO1 (single isomer, unassigned) [Compound 572, (7R*)-7-[(2S)-1,4-dioxan-2-ylmethyl]-3-[(3-fluoro-2-methoxyphenyl)amino]-2-(pyrimidin-4-yl)-1H,5H,6H,7H-pyrrolo[3,2-c]pyridin-4-one]	< 100	< 100	100 to 1000	< 100	< 100	< 100	> 1000	–	< 100	100 to 1000	< 100
COc1c(Cl)cccc1Nc1c(-c2ccncc2F)[nH]c2c1C(=O)NCC21CCOCC1 [Compound 778, 3′-[(3-chloro-2-methoxyphenyl)amino]-2′-(3-fluoropyridin-4-yl)-5′,6′-dihydro-1′H-spiro[oxane-4,7′-pyrrolo[3,2-c]pyridin]-4′-one]	100 to 1000	< 100	–	< 100	< 100	< 100	> 1000	100 to 1000	< 100	100 to 1000	100 to 1000

Continued, values first:

IC50 [1] [nM]	IC50 [2] [nM]	IC50 [3] [nM]	IC50 [4] [nM]	IC50 (EGFR L858R (Ba/F3 cells) [5]) [nM]	IC50 (EGFR L858R (Ba/F3 cells) [6]) [nM]	IC50 (EGFR WT (Ba/F3 cells)) [nM]	IC50 [7] [nM]	IC50 [8] [nM]	IC50 [9] [nM]	IC50 [10] [nM]	SMILES
< 100	< 100	< 100	< 100	< 100	< 100	< 100	< 100	< 100	< 100	< 100	COc1c(F)cccc1Nc1c(-c2ccnc3ccc(OC4(C)COC4)nc23)[nH]c2c1C(=O)NCC2 [Compound 788, 3-[(3-fluoro-2-methoxyphenyl)amino]-2-[6-[(3-methyloxetan-3-yl)oxy]-1,5-naphthyridin-4-yl]-1H,5H,6H,7H-pyrrolo[3,2-c]pyridin-4-one]
100 to 1000	< 100	–	< 100	< 100	< 100	> 1000	100 to 1000	< 100	100 to 1000	< 100	COc1c(Cl)cccc1Nc1c(-c2ccncc2F)[nH]c2c1C(=O)NC[C@H]2CC(F)F [Compound 820, (7R)-3-[(3-chloro-2-methoxyphenyl)amino]-7-(2,2-difluoroethyl)-2-(3-fluoropyridin-4-yl)-1H,5H,6H,7H-pyrrolo[3,2-c]pyridin-4-one]
